Experimental data: patent US20260294915A1, “COMBINATION THERAPY COMPRISING A MAT2A INHIBITOR AND A TOPOISOMERASE INHIBITOR, A SPLICING INHIBITOR SULFONAMIDE, OR A KIF18 INHIBITOR” (IDEAYA BIOSCIENCES, INC., priority 2023, published 2026)

Legend:
Assay in all cases: 10-day proliferation (CTG), equimolar Compound A + Compound B (Example 1)
Assay type in all cases: cell-based
NCI-H838 = settings: Homo sapiens, NCI-H838, 240 h, 10 days, single agent or 1:1 combo; for IC30: read-out: gIC30; for IC40: read-out: gIC40; for IC50: read-out: gIC50; for IC60: read-out: gIC60; for IC70: read-out: gIC70; for IC80: read-out: gIC80; for IC90: read-out: gIC90; for IC100: read-out: gIC100
Protocol: (§1) A 10-day proliferation assay was performed in a panel of 5 MTAP-deficient and 2 wild type non-small cell lung and bladder cancer cell lines. Optimal cell seeding for all cell lines was determined by assessing the growth over a range of seeding densities in a 384-well format to identify conditions that permitted proliferation for 10 days. Cells were then plated at the optimal seeding density and treated with 20-point, two-fold dilution series of Compound A, sovilnesib (“Compound B”), or an equimolar combination of Compound A and Compound B. Concentrations tested for Compound A and Compound B alone or in combination ranged from 0.038 nM to 20,000 nM. A plate of cells was harvested at the time of compound addition to quantify the number of cells at the start of the combination (T0). For cell quantification, the harvested cells were lysed with Promega CellTiter-Glo (CTG) reagent according to the manufacturer's protocol and the chemiluminescent signal was detected on a Synergy Neo plate reader. CTG estimates cell number through detection of cellular ATP levels. Cells were incubated with the drug combinations at 37° C. with 5% CO2 for 10 days. Cells were then lysed with CTG and the chemiluminescent signal was measured.
(§2) CTG values obtained after the 10-day treatment were background subtracted and expressed as a percent of the T0 value. Data were plotted against compound concentration and fit with a four-parameter equation to generate dose response curves for each single agent and the equimolar combination. Growth ICx (gICx) values ranging from gIC30 to gIC100 were interpolated from the fitted curves. Synergistic growth inhibition was assessed by determination of Combination Index (CI) values at these various points across the titration using the mutually non-exclusive equation [Chou, 1983; Chou, 1981] shown below where A equals the gIC value of Compound A, B equals the gICx value of Compound B, and A+B or B+A equals the gICx value of the equimolar combination. A Combination Index value less than 1.0 was considered synergistic.
(§3) Synergy was measured for equimolar combinations of Compound A and Compound B utilizing the mutually non-exclusive Combination Index equation across gICx values ranging from gIC30-gIC100. Combination Index values are shown for: NCI-H838 (3A), SW900 (3B), RT112/84 (3C), UMUC5 (3D), and UMUC11 (3E).

RT112/84 = settings: Homo sapiens, RT112/84, 240 h, 10 days, single agent or 1:1 combo; for IC30: read-out: gIC30; for IC40: read-out: gIC40; for IC50: read-out: gIC50; for IC60: read-out: gIC60; for IC70: read-out: gIC70; for IC80: read-out: gIC80; for IC90: read-out: gIC90; for IC100: read-out: gIC100
Protocol: as §1, §2, §3

SW900 = settings: Homo sapiens, SW900, 240 h, 10 days, single agent or 1:1 combo; for IC30: read-out: gIC30; for IC40: read-out: gIC40; for IC50: read-out: gIC50; for IC60: read-out: gIC60; for IC70: read-out: gIC70; for IC80: read-out: gIC80; for IC90: read-out: gIC90; for IC100: read-out: gIC100
Protocol: as §1, §2, §3

UMUC11 = settings: 240 h, 10 days, single agent or 1:1 combo; for IC30: read-out: gIC30; for IC40: read-out: gIC40; for IC50: read-out: gIC50; for IC60: read-out: gIC60; for IC70: read-out: gIC70; for IC80: read-out: gIC80; for IC90: read-out: gIC90; for IC100: read-out: gIC100
Protocol: as §1, §2, §3

UMUC5 = settings: 240 h, 10 days, single agent or 1:1 combo; for IC30: read-out: gIC30; for IC40: read-out: gIC40; for IC50: read-out: gIC50; for IC60: read-out: gIC60; for IC70: read-out: gIC70; for IC80: read-out: gIC80; for IC90: read-out: gIC90; for IC100: read-out: gIC100
Protocol: as §1, §2, §3

**Q.** Which results are given for `Nc1nc(=O)n(-c2ccccc2Cl)c2nc(C(F)(F)F)ccc12` [Compound A]?
**A.** IC30 (NCI-H838): 0.052 µM; IC40 (NCI-H838): 0.09 µM; IC50 (NCI-H838): 0.208 µM; IC60 (NCI-H838): 20 µM; IC70 (NCI-H838): 20 µM; IC80 (NCI-H838): 20 µM; IC90 (NCI-H838): 20 µM; IC100 (NCI-H838): 20 µM; IC30 (RT112/84): 0.277 µM; IC40 (RT112/84): 0.854 µM; IC50 (RT112/84): 3 µM; IC60 (RT112/84): 16 µM; IC70 (RT112/84): 20 µM; IC80 (RT112/84): 20 µM; IC90 (RT112/84): 20 µM; IC100 (RT112/84): 20 µM; IC30 (SW900): 20 µM; IC40 (SW900): 20 µM; IC50 (SW900): 20 µM; IC60 (SW900): 20 µM; IC70 (SW900): 20 µM; IC80 (SW900): 20 µM; IC90 (SW900): 20 µM; IC100 (SW900): 20 µM; IC30 (UMUC11): 20 µM; IC40 (UMUC11): 20 µM; IC50 (UMUC11): 20 µM; IC60 (UMUC11): 20 µM; IC70 (UMUC11): 20 µM; IC80 (UMUC11): 20 µM; IC90 (UMUC11): 20 µM; IC100 (UMUC11): 20 µM; IC30 (UMUC5): 0.357 µM; IC40 (UMUC5): 1.35 µM; IC50 (UMUC5): 5.16 µM; IC60 (UMUC5): 19.4 µM; IC70 (UMUC5): 20 µM; IC80 (UMUC5): 20 µM; IC90 (UMUC5): 20 µM; IC100 (UMUC5): 20 µM

**Q.** Which IC30 (NCI-H838) does the source give for `Cc1cc(NC(=O)c2ccc(NS(=O)(=O)CCO)cc2N2CCC3(CC2)CC3)nc(N2CCC(F)(F)CC2)n1` [Compound B, N-(2-(4,4-difluoropiperidin-1-yl)-6-methylpyrimidin-4-yl)-4-((2-hydroxyethyl)sulfonamido)-2-(6-azaspiro[2.5]octan-6-yl)benzamide] here?
**A.** 0.735 µM

**Q.** What about the IC40 (NCI-H838) of the same compound?
**A.** 1.48 µM

**Q.** What about the IC50 (NCI-H838) of the same compound?
**A.** 12.5 µM

**Q.** And the IC60 (NCI-H838)?
**A.** 14.3 µM

**Q.** And the IC70 (NCI-H838)?
**A.** 17 µM

**Q.** And the IC80 (NCI-H838)?
**A.** 20 µM

**Q.** What about the IC90 (NCI-H838) of the same compound?
**A.** 20 µM

**Q.** What about the IC100 (NCI-H838) of the same compound?
**A.** 20 µM

**Q.** And the IC30 (RT112/84)?
**A.** 0.15 µM

**Q.** And the IC40 (RT112/84)?
**A.** 0.17 µM

**Q.** What about the IC50 (RT112/84) of the same compound?
**A.** 0.192 µM

**Q.** What about the IC60 (RT112/84) of the same compound?
**A.** 0.222 µM

**Q.** What about the IC70 (RT112/84) of the same compound?
**A.** 0.273 µM

**Q.** What about the IC80 (RT112/84) of the same compound?
**A.** 10.3 µM

**Q.** What about the IC90 (RT112/84) of the same compound?
**A.** 20 µM

**Q.** And the IC100 (RT112/84)?
**A.** 20 µM

**Q.** What about the IC30 (SW900) of the same compound?
**A.** 5.48 µM

**Q.** What about the IC40 (SW900) of the same compound?
**A.** 8.55 µM

**Q.** What about the IC50 (SW900) of the same compound?
**A.** 12.3 µM

**Q.** And the IC60 (SW900)?
**A.** 16.6 µM

**Q.** And the IC70 (SW900)?
**A.** 19.9 µM

**Q.** And the IC80 (SW900)?
**A.** 20 µM

**Q.** What about the IC90 (SW900) of the same compound?
**A.** 20 µM

**Q.** And the IC100 (SW900)?
**A.** 20 µM

**Q.** And the IC30 (UMUC11)?
**A.** 2.2 µM

**Q.** And the IC40 (UMUC11)?
**A.** 3.48 µM

**Q.** What about the IC50 (UMUC11) of the same compound?
**A.** 5.17 µM

**Q.** What about the IC60 (UMUC11) of the same compound?
**A.** 7.3 µM

**Q.** What about the IC70 (UMUC11) of the same compound?
**A.** 9.95 µM

**Q.** And the IC80 (UMUC11)?
**A.** 13.2 µM

**Q.** What about the IC90 (UMUC11) of the same compound?
**A.** 17.1 µM

**Q.** What about the IC100 (UMUC11) of the same compound?
**A.** 20 µM

**Q.** And the IC30 (UMUC5)?
**A.** 0.17 µM

**Q.** What about the IC40 (UMUC5) of the same compound?
**A.** 0.194 µM

**Q.** What about the IC50 (UMUC5) of the same compound?
**A.** 0.221 µM

**Q.** What about the IC60 (UMUC5) of the same compound?
**A.** 0.253 µM

**Q.** And the IC70 (UMUC5)?
**A.** 0.296 µM

**Q.** And the IC80 (UMUC5)?
**A.** 0.37 µM

**Q.** And the IC90 (UMUC5)?
**A.** 0.662 µM

**Q.** What about the IC100 (UMUC5) of the same compound?
**A.** 20 µM
